Results on three compounds are retold here after PMC2978097, “Inhibiting α-Synuclein Oligomerization by Stable Cell-Penetrating β-Synuclein Fragments Recovers Phenotype of Parkinson's Disease Model Flies” (PLoS ONE, 2010).

Where a SMILES comes first, the peptide text is derived from it. Where no end group is shown, it is not given here. [ ]: non-standard residue; d: D form.

One data set deals with T1, α-syn monomers (Homo sapiens, UniProt P37840).
T1 construct: made in house; host or cells: E. coli BL21 (pT7-7)
Put plainly: Fluorescence anisotropy titration with α-syn monomers. The conditions noted are these: fluorescent anisotropy, increasing amounts of α-syn monomers titrated into the peptide solution; Figure S1; read-out: affinity constant (Kd) towards α-syn monomers. Format: binding. On the procedure:
To evaluate the binding of the peptides to α-syn, increasing amounts of α-syn monomers were titrated into a solution of the modified β-syn 36 peptide and anisotropy was determined (Figure S1). The affinity constant was determined to be ∼1 µM.
Supplementary file pone.0013863.s001.tif: Figure S1 The affinity of the modified β-syn 36 containing tryptophan instead of tyrosine towardsα-syn monomers was examined using fluorescent anisotropy. Kd = 1 µM. (0.02 MB TIF) Click here for additional data file.

The nature of data set [1]: In vitro peptide stability in mouse brain homogenate. It is filed as in vitro ADME. Conditions: 20% peptide solution (1 mM in Tris pH 7.6) and 80% of 10% ICR mouse brain homogenate (0.5% Triton X-100), 37°C, two hours; C18 HPLC, UV 280 nm peak area vs sample in Tris buffer; Figure 5. How it is done:
Peptides were dissolved to give a 1 mM solution in […] (pH 7.6). 120 µl of the peptide solution was diluted into a 10% freshly-made homogenate of mouse brain excluding the cerebellum (in 1× Tris buffer and 0.5% Triton X-100). A mixture containing 20% peptide solution and 80% mouse brain homogenate was incubated at 37°C with delicate shaking for two hours. The enzyme reaction was stopped by adding 0.1 M HCl solution, followed by denaturation of the protein using methanol and incubation at 20°C for one hour. The precipitated proteins were centrifuged at 29,000×g for 20 minutes at 4°C and the supernatant containing the peptide was concentrated under vacuum and separated using a C18 HPLC column. The area of the peak (UV absorbance at 280 nm) corresponding to the intact peptide was compared with an equivalent sample incubated in […].
Figure 5 Serum stability of β-syn 36 peptides. Brain extract of wild type ICR white mouse was incubated with the peptides β-syn 36 and retro-inverso β-syn 36 for two hours and loaded on a C18 column for serum stability analysis. (A) Spectra of the β-syn 36 peptide (blue) and β-syn 36 peptide with brain extract (red). […] (C) Quantification of the area under the peak. The area of the peptide in time ‘0’ was determined as 100%. […]

The subject of a further data set is PC12 cells. The data set is described as follows: Toxicity towards cultured PC12 cells. It is filed as cell-based. Conditions: concentrations up to 1 mM in the growing medium, twenty four hours; data not shown. From the text: Our best inhibitor candidate was the β-syn 36 peptide which inhibited both the soluble and insoluble fibrillar aggregates of α-syn.

Take `CC(C)C[C@@H](NC(=O)[C@H](NC(=O)CN)C(C)C)C(=O)N[C@H](Cc1c[nH]c2ccccc12)C(=O)N[C@@H](C(=O)NCC(=O)N[C@H](CO)C(=O)N[C@H](CCCCN)C(=O)N[C@@H](C(=O)N[C@H](CCCNC(=N)N)C(=O)O)[C@H](C)O)C(C)C` [Y39W β-syn 36D] (H-G[dV][dL][dW][dV]G[dS][dK][dT][dR]-OH): the Kd on α-syn monomers stood at 1000 nM.

`CC(C)C[C@@H](NC(=O)[C@@H](Cc1ccc(O)cc1)NC(=O)[C@H](NC(=O)CNC(=O)[C@@H](CO)NC(=O)[C@@H](CCCCN)NC(=O)[C@H](NC(=O)[C@H](N)CCCNC(=N)N)[C@H](C)O)C(C)C)C(=O)N[C@@H](C(=O)NCC(=O)O)C(C)C` [retro-inverso β-syn 36] (H-[dR][dT][dK][dS]G[dV][dY][dL][dV]G-OH): the “stability in mouse brain homogenate (called serum stability)” value in data set [1] was “more stable than the unmodified β-syn 36”.

For the compound GVLYVGSKTR [β-syn 36], the “toxicity towards cultured cells (PC12)” value with PC12 cells is reported as “no toxicity”.
